# According to patent publication US20080075730A1, “Methods and compositions for treating biofilms” (priority 2003, published 2008):
# Where two headings read alike, the source gives them in different places.
# Experiments:
# Type in all cases: cell-based
# [1] = system: Pseudomonas aeruginosa PA14 gacS^− biofilms; experiment: Frequency of SCV cells arising from 24-h biofilms exposed for 18 h; conditions: in words
# Protocol: In an alternative set of experiments, the frequency of SCV cells arising from 24-h biofilms of P. aeruginosa PA14 gacS was evaluated. Antibiotics were diluted from stock solutions into LB broth to obtain final concentrations of […]. These were arranged in triplicate in a micro-titre plate. Biofilms were incubated in these low concentrations of antibacterials for 18 h at 35° C. and 95% relative humidity. Goat and human serum were also assayed in this array, and were kind gifts from The Life and Environmental Sciences Animal Care Facility at the University of Calgary, Department of Biological Sciences. After exposure, biofilms were treated in a manner identical to that described above.
# Frequency of phenotypic variation. During the course of susceptibility assays, the proportion of SCV cells recovered from biofilms after exposure to Ag^+ or H2O2 was increased relative to the corresponding growth controls. It was queried whether this may be true for other antimicrobial agents or growth conditions. An array of clinically used antibiotics, saline, and goat and human sera were examined for an ability to select for these SCVs from 24-h biofilms of P. aeruginosa PA14 gacS. Biofilms were exposed to these agents for 18 h and each assay was performed in triplicate. Viable cell counts were determined for each exposure condition, and log-survival was determined. The proportion of SCV cells in bacterial populations recovered from these exposure conditions was calculated as the mean of the proportions from each individual trial.
# [2] = system: Pseudomonas aeruginosa PA14 gacS^−; experiment: MIC determination, planktonic cells shed from biofilms (MBEC P&G device); conditions: for MIC: Pseudomonas aeruginosa, PA14, gacS^−, planktonic cells, OD650 after 72 h at 35° C., mean ± SD of four trials, read-out: MIC72 h
# Protocol: (§1) Antimicrobial susceptibility testing. Antibiotic, metal and biocide susceptibility tests were performed. Antimicrobials were arranged into arrays in microtitre plates that typically consisted of serial two-fold dilutions along the rows of wells (the challenge plates). The first and last wells of every row were used as sterility and growth controls, respectively. […] Biofilms were rinsed with PBS (to remove loosely adherent planktonic cells) and inserted into the challenge plates. After exposure, biofilms were rinsed once in PBS and inserted into microtitre plates containing […] of recovery medium in each well (LB broth, 5 mM GSH, 5 mM L-cys, 1% v/v tween-20). These biofilms were disrupted into the recovery medium using a sonicator, and the recovered cells were serially diluted and plated for viable cell counting. Spot plates from these experiments were incubated for a minimum of 36 h at 35° C. before enumeration. Minimum inhibitory concentration (MIC) values were determined by reading the optical density at 650 nm (OD650) of challenge plates after 72 h at 35° C. using a THERMOmax microplate reader with SOFTMAX PRO data analysis software (Molecular Devices, Sunnyvale, Calif.).
# (§2) For susceptibility testing, growth-curve data were used to calibrate incubation times to produce biofilms of similar cell density. […] In this model system, planktonic cells shed from the surface of biofilms served as the inoculum for MIC determinations.
# [3] = system: Pseudomonas aeruginosa PA14 SCV; experiment: as above; conditions: for MIC: Pseudomonas aeruginosa, PA14, SCV, planktonic cells, OD650 after 72 h at 35° C., mean ± SD of four trials, read-out: MIC72 h
# Protocol: as §1, §2
# [4] = system: Pseudomonas aeruginosa PA14 gacS^− biofilms; experiment: Biofilm susceptibility testing (viable cell counts, log-killing, MBEC99.9); conditions: for Log-survival / No. of survivors / SCV frequency: LB broth; for Log-survival / No. of survivors / SCV frequency / MBEC99.9: 2 h exposure; for MBEC99.9: gacS^− biofilms, 3 log10 reduction in viable cells
# From the text: (§3) Biofilm formation. Biofilms were aerobically cultivated using the MBEC high-throughput (HTP) or Physiology and Genetics (P&G) device (Innovotech, Edmonton, Canada) as described in the manufacturer's instructions and by Ceri et al. (1999). To summarize, the parts of this batch culture apparatus were used in two ways. The top half of the plastic MBEC™-HTP device is a lid with 96 polystyrene pegs that also fits over a standard 96-well microtitre plate. For Biofilm growth, the bottom half was either (1) a corrugated trough that guided 22 mL of inoculum across the pegs when the device was placed on a rocker at 3.5 rocks per min (HTP format), or (2) a microtitre plate with […] of inoculum in each well that was placed on a gyrorotary shaker at 150 r.p.m. (P&G format). For either assay format, the inoculum was prepared to c. 10^7CFU/mL1 of the desired strain and the inoculated device was incubated at 35° C. and 95% relative humidity for the required time. Unless otherwise noted, all experiments utilized the MBEC P&G assay. Pegs from the devices were collected at specific time points for scanning electron microscopy and scanning confocal laser microscopy. Biofilm cell densities were evaluated by breaking pegs from the lid of the MBEC device with sterile pliers, rinsing the peg in PBS, and subsequent viable-cell counting as described above. PBS containing the […] surfactant Tween-20 (1% v/v) was used to assist in recovery of bacteria from the peg surfaces. Pegs were sonicated for 30 min in an Aquasonic model 250HT ultrasonic cleaner (VWR International, Mississauga, Canada). Samples of broth culture were collected at the same time points and viable cell counts were determined in a similar manner.
# as §1, §2
# [5] = system: Pseudomonas aeruginosa PA14 SCV biofilms; experiment: as above; conditions: for MBEC99.9: SCV biofilms, 2 h exposure, 3 log10 reduction in viable cells
# From the text: as §3, §1, §2
# [6] = system: Pseudomonas aeruginosa PA14 wild-type biofilms
# From the text: as §3, §1, §2
# [7] = system: Pseudomonas aeruginosa PA14 wild-type; experiment: microbe, parasite or virus in culture; conditions: for MIC: Pseudomonas aeruginosa, read-out: MIC72 h
# Protocol: as §1, §2
compound,measurement,setting,value
O=C(O)c1cn(C2CC2)c2cc(N3CCNCC3)c(F)cc2c1=O [Ciprofloxacin],selection for SCVs / increase of the frequency of SCV cells compared with growth controls,[1],in no instances
same,MIC,[2],0.7 ± 0.3 µg/mL
same,MIC,[3],0.8 ± 0.4 µg/mL
same,Log-survival,[4]; 0.16 μg mL^−1,−2.6 ± 0.8 log10 CFU peg^−1
same,No. of survivors,[4]; 0.16 μg mL^−1,2.4 ± 0.8 log10 CFU peg^−1
same,SCV frequency,[4]; 0.16 μg mL^−1,0%
same,MBEC99.9,[4],0.12 ± 0.05 µg/mL
same,MBEC99.9,[5],0.64 ± 0.45 µg/mL
same,tolerance of SCV strain biofilms relative to the wild-type strain,"[5]; ratio of MBEC99.9 values, SCV vs wild type",approximately four
same,MBEC99.9,"[6]; wild type biofilms, 2 h exposure, 3 log10 reduction in viable cells",0.16 ± 0 µg/mL
same,MIC,"[7]; PA14, wild type, planktonic cells, OD650 after 72 h at 35° C., mean ± SD of four trials",0.4 ± 0.2 µg/mL
same,differences in planktonic cell susceptibility between the different strains,"[7]; wild type vs gacS^− vs SCV, log2 difference or less",no significant differences
"OO [H2O2, hydrogen peroxide]",MIC,[2],45 ± 16 µg/mL
same,planktonic cell susceptibility,"[2]; planktonic PA14 gacS, in words",hypersensitive
same,MIC,[3],1880 µg/mL
same,planktonic cell susceptibility,"[3]; planktonic PA14 SCV, by comparison, in words",highly resistant
same,Log-survival,[4]; 30 μg mL^−1,−3.8 ± 1.1 log10 CFU peg^−1
same,No. of survivors,[4]; 30 μg mL^−1,1.2 ± 1.1 log10 CFU peg^−1
same,SCV frequency,[4]; 30 μg mL^−1,8%
same,MBEC99.9,[4],22 ± 14 ppm
same,"proportion of SCV cells recovered from biofilms after exposure, relative to growth controls","[4]; susceptibility assays, in words",increased
same,MBEC99.9,[5],293 ± 203 ppm
same,biofilm survival at subMBEC99.9 concentrations relative to the wild-type strain,[5]; in words,increased survival
same,MBEC99.9,[6],352 ± 135 ppm
same,MIC,"[7]; PA14, 72 h",938 µg/mL
